ChEMBL document CHEMBL4834430, “Design and Structure-Activity Relationships of Isothiocyanates as Potent and Selective N-Acylethanolamine-Hydrolyzing Acid Amidase Inhibitors” (J Med Chem, 2021)
pIC50: −log10 of the molar value. Values belong to the molecule of their own block, whether it stands above or below them. Active and inactive are the calls of the source. No cut-off for these calls is given here.

What was measured:
[1] = target: T1, N-acylethanolamine-hydrolyzing acid amidase (Homo sapiens, UniProt Q02083); test: Inhibition of human NAAA using N-(4-methyl coumarin)-palmitamide as fluorogenic substrate preincubated for 90 mins followed by substrate addition by fluorescence assay
T1 sequence (Q02083 whole entry): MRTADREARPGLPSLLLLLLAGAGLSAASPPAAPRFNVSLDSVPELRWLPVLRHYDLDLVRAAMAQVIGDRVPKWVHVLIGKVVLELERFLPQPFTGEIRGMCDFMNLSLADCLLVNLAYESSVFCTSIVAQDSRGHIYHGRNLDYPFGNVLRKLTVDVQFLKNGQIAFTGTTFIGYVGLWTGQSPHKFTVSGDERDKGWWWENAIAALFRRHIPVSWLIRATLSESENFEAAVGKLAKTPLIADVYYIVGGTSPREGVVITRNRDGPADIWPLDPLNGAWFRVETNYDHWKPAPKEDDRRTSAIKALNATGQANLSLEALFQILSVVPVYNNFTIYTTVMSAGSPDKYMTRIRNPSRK

[2] = Drug concentration in brain of CD-1 mouse at 2 mg/kg, iv administered as single cassette dose measured after 15 mins; type: ADME, organism-based; conditions: read-out: Ct
Cathepsin K = target: T2, Cathepsin K (Homo sapiens, UniProt P43235); test: Inhibition of recombinant human Cathepsin K using Z-Phe-Arg-AMC as fluorogenic substrate preincubated for 120 mins followed by substrate addition by fluorescence assay
T2 sequence (P43235 whole entry): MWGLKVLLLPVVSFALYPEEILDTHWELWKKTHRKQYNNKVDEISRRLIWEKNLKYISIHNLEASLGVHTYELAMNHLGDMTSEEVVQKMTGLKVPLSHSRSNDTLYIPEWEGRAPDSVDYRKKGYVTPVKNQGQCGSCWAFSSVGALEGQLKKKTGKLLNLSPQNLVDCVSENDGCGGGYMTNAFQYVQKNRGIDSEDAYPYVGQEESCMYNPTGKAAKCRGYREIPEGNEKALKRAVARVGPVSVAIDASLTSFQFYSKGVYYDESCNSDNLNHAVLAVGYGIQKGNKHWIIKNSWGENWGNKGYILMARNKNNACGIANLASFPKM

[3] = Half life in human liver microsomes at 1 uM in presence of NADPH by LC-MS/MS analysis; type: ADME, Microsome
[4] = Half life in rat liver microsomes at 1 uM in presence of NADPH by LC-MS/MS analysis; type: ADME, Microsome
[5] = Half life in mouse liver microsomes at 1 uM in presence of NADPH by LC-MS/MS analysis; type: ADME, Microsome
[6] = Drug concentration in plasma of CD-1 mouse at 2 mg/kg, iv administered as single cassette dose measured after 15 mins; type: ADME, organism-based
[7] = Drug concentration in plasma of CD-1 mouse at 8 mg/kg, po administered as single cassette dose measured after 30 mins; type: ADME, organism-based
[8] = Drug concentration in plasma of CD-1 mouse at 8 mg/kg, po administered as single cassette dose measured after 60 mins; type: ADME, organism-based
[9] = target: T3, N-acylethanolamine-hydrolyzing acid amidase (Homo sapiens) (UniProt Q02083); test: Covalent inhibition of human NAAA assessed as ratio of Kinact/Ki
T3 sequence (whole entry): T1 sequence (Q02083 whole entry)

[10] = target: T4, Cathepsin K (Homo sapiens) (UniProt P43235); test: Inhibition of recombinant human Cathepsin K at 100 nM using Z-Phe-Arg-AMC as fluorogenic substrate preincubated for 120 mins followed by substrate addition by fluorescence assay relative to control
T4 sequence (whole entry): T2 sequence (P43235 whole entry)

[11] = target: T4, Cathepsin K (Homo sapiens); test: Inhibition of recombinant human Cathepsin K at 1 uM using Z-Phe-Arg-AMC as fluorogenic substrate preincubated for 120 mins followed by substrate addition by fluorescence assay
[12] = target: T3, N-acylethanolamine-hydrolyzing acid amidase (Homo sapiens); test: Inhibition of human NAAA at 1 uM using N-(4-methyl coumarin)-palmitamide as fluorogenic substrate preincubated for 90 mins followed by substrate addition by fluorescence assay relative to control

SMILES: COc1ccc(-c2noc(CO[C@H]3C[C@@H](N=C=S)C3)n2)cc1
pIC50 [1]: 6.31

concentration at 0.25 h [2]: 8 ng/g
pIC50 [1]: 7.01
pIC50 (Cathepsin K): 7.23
half-life at 1 µM [3]: 10.9 min
half-life at 1 µM [4]: 9.1 min
half-life at 1 µM [5]: 2.9 min
concentration at 0.25 h [6]: 178 ng/mL
concentration at 0.5 h [7]: 12 ng/mL
concentration at 1 h [8]: 7 ng/mL
SMILES: Fc1cc(-c2ccc(OC(F)(F)F)c(F)c2)ccc1CO[C@H]1C[C@@H](N=C=S)C1

SMILES: COc1cc(-c2ccc(CO[C@H]3C[C@@H](N=C=S)C3)c(F)c2)ccc1F
pIC50 [1]: 6.81

SMILES: COc1ccc(-c2ccc(CO[C@H]3C[C@@H](N=C=S)C3)c(F)c2)cc1OC
pIC50 [1]: 7.23
Ratio [9]: 7.97 10^5/M/s

SMILES: COc1ccc(-c2ccc3c(c2)CN([C@H]2C[C@@H](N=C=S)C2)C3)cc1F
pIC50 [1]: 7.13

SMILES: COc1ccc(-c2ccc(C(=O)N[C@]34C[C@](N=C=S)(C3)C4)c(F)c2)cc1
pIC50 [1]: 5.91

SMILES: Cc1ccc(-c2ccc(CO[C@H]3C[C@H](N=C=S)C3)cc2)cc1
pIC50 [1]: 6.24

SMILES: S=C=NC1CN(CCCCCCc2ccccc2)C1
pIC50 [1]: 8.08

SMILES: COc1ccc(-c2ccc(CO[C@H]3CC[C@@H](N=C=S)C3)nc2)cc1F (single isomer, unassigned)
pIC50 [1]: 5.84

SMILES: CCOc1ccc(-c2ccc(CO[C@H]3C[C@@H](N=C=S)C3)c(F)c2)cc1F
pIC50 [1]: 7.16

SMILES: COc1cnc(-c2cnc(CO[C@H]3C[C@@H](N=C=S)C3)c(F)c2)cc1F
pIC50 [1]: 7.71
inhibition [10]: 43.7%
half-life at 1 µM [3]: 7.1 min
half-life at 1 µM [4]: 7.4 min
half-life at 1 µM [5]: 6.3 min

SMILES: COc1ccc(-c2cc(CO[C@H]3C[C@@H](N=C=S)C3)on2)cc1
pIC50 [1]: 7.36

SMILES: Cc1ccc(-c2ccc(CO[C@H]3C[C@@H](N=C=S)C3)cc2)cc1
pIC50 [1]: 7.59
Ratio [9]: 2.04 10^6/M/s

SMILES: S=C=N[C@H]1C[C@H](OCc2ccc(-c3ccccc3)cc2)C1
pIC50 [1]: 5.37

SMILES: COc1ccc(-c2ccc(S(=O)(=O)N[C@H]3C[C@@H](N=C=S)C3)cc2)cc1F
pIC50 [1]: 8.49
inhibition [11]: inactive
half-life at 1 µM [3]: 8 min
half-life at 1 µM [4]: 6 min
half-life at 1 µM [5]: 6 min

SMILES: Fc1cc(-c2cccc(OCc3ccccc3)c2)ccc1CO[C@H]1C[C@@H](N=C=S)C1
pIC50 [1]: 7.00

SMILES: Fc1cc(-c2ccc3c(c2)OCCO3)ccc1CO[C@H]1C[C@@H](N=C=S)C1
concentration at 0.25 h [2]: 12 ng/g
pIC50 [1]: 7.93
Ratio [9]: 2.43 10^5/M/s
concentration at 0.25 h [6]: 168 ng/mL
concentration at 0.5 h [7]: 12 ng/mL
concentration at 1 h [8]: 7 ng/mL

SMILES: COc1ccc(Oc2ccc(C(=O)N[C@H]3C[C@@H](N=C=S)C3)cc2)cc1
pIC50 [1]: 5.85

SMILES: COc1ccc(C23CC(C(=O)N[C@H]4C[C@@H](N=C=S)C4)(C2)C3)cc1
pIC50 [1]: 6.89

SMILES: FC1(F)Oc2ccc(-c3ccc(CO[C@H]4C[C@@H](N=C=S)C4)nc3)cc2O1
pIC50 [1]: 6.77

SMILES: CN(Cc1ccc(-c2ccccc2)cc1)[C@H]1C[C@@H](N=C=S)C1
pIC50 [1]: 5.72
half-life at 1 µM [3]: 14.7 min
half-life at 1 µM [4]: 4.4 min
half-life at 1 µM [5]: 5.1 min

SMILES: COc1ccc(-c2ccc(C(=O)N[C@H]3C[C@@H](N=C=S)C3)nc2)cc1F
concentration at 0.25 h [2]: 690 ng/g
pIC50 [1]: 7.58
inhibition [11]: inactive
half-life at 1 µM [3]: 13 min
half-life at 1 µM [4]: 8.6 min
half-life at 1 µM [5]: 14 min
concentration at 0.25 h [6]: 264 ng/mL
concentration at 0.5 h [7]: 11 ng/mL
concentration at 1 h [8]: 8 ng/mL

SMILES: COc1ccc(-c2cc(C(=O)N[C@H]3C[C@@H](N=C=S)C3)on2)cc1
pIC50 [1]: 7.04

SMILES: Fc1cc(-c2ccc3c(c2)OCC3)ccc1CO[C@H]1C[C@@H](N=C=S)C1
pIC50 [1]: 7.23

SMILES: COc1ccc(CCCC(=O)N[C@H]2C[C@@H](N=C=S)C2)cc1
pIC50 [1]: 7.21

inhibition [12]: 51%
SMILES: COc1ccc(-c2ncc(C(=O)N[C@H]3C[C@@H](N=C=S)C3)o2)cc1

inhibition [12]: 35%
SMILES: COc1ccc(-c2ccc(CO[C@H]3CCC[C@@H](N=C=S)C3)cc2)cc1F
